# Reference: patent US20240081329A1, “NON-PROTEIN PHENYLALANINE ANALOGUES FOR INHIBITING CYANOBACTERIA AND PLANT GROWTH” (YISSUM RESEARCH DEVELOPMENT COMPANY OF THE HEBREW …, priority 2016, published 2024)
# “Also recorded” adds a separate entry of the source.
# How the values were obtained:
# [1] = system: glyphosate resistant Lolium rigidum Gaudin; assay: Combined treatment on glyphosate resistant weed, seed-germination and seedlings establishment; assay type: in vivo
# Text: FIG. 10 is an image depicting the effects of Phe-analogs, on glyphosate resistant Lolium rigidum Gaudin (weed) seed-germination and seedlings establishment. ZYX1=m-Tyr; “RoundUp”=Glyphosate; “uM”=μicromolar.
# In recent years, Lolium rigidum Gaudin (annual ryegrass) resistance to a number of herbicides has started to spread worldwide.
# A. thaliana [2] = details: absence of Formula A, I or II compound; based on TAIR database; cited from earlier work
# A. thaliana [3] = assay: Combined treatment of Phe-analogues and glyphosate, A. thaliana root growth / seed-germination; assay type: in vivo, Arabidopsis thaliana
# Protocol: FIG. 9 is an image depicting the effects of Phe-analogs, glyphosate and combination thereof on Arabidopsis thaliana (var. Columbia) seed-germination and seedlings establishment. “ZYX1”=m-Tyr (3′ OH phenylalanine); “ZYX2”=3′ fluoro phenylalanine; “RoundUp”=Glyphosate; “uM”=μicromolar.
# For example, when inhibition of weed growth (e.g., A. thaliana) is achieved using an amount of 100 μM of glyphosate (based on TAIR database) when used in the absence of the effective amount of the compound depicted by Formula A, I or II, the concentration of glyphosate required for achieving the same growth inhibition of the weed in the presence of the effective amount of the compound depicted by Formula A, I or II is 10 μM of glyphosate, i.e., a reduction of about 90% in the concentration of glyphosate (e.g., using the ZYX1 compound as shown in FIG. 9).
# Compared to herbicides (e.g., glyphosate) applied alone, the performance of herbicide mixtures can be either synergistic, or additive. Additivity is the combined action, which is equal to the total response predicted by taking into account the response of each herbicide applied alone. Synergism is the combined action of two herbicides where the observed response to their joint application is greater than the response predicted by Colby method [S. R. COLBY. Calculating Synergistic and Antagonistic Responses of Herbicide Combinations. […]
# Synechocystis PCC 6803 = assay: Growth inhibition / bleaching of cyanobacteria culture (absorbance OD=730, colonies on agar); assay type: cell-based; details: for effect on growth / killing of the cyanobacteria: water samples, OD=730
# Protocol: FIGS. 3A-B depict the inhibition of cyanobacteria by the phenylalanine analogue of some embodiments of the invention (“F”). FIG. 3A—a graph depicting the inhibition of growth of cyanobacteria Synechocystis PCC 6803 by increasing concentrations of the phenylalanine analogue of some embodiments of the invention. FIG. 3B—raw data of the results shown in FIG. 3A as detected after 150 hours.
# (§1) FIGS. 5A-E depict the effect of m-Tyr on killing cyanobacteria Microcystis aeruginosa (FIGS. 5A-B) and Synechocystis PCC 6803 (FIGS. 5C-E) from water samples. FIG. 5A is a graph depicting the effects of m-Tyr on lake Kinneret samples containing the highly toxic cyanobacteria, Microcystis aeruginosa. The tests were performed with samples collected from lake Kinneret, that are contaminated by its native toxic cyanobacteria Microcystis aeruginosa, in the absence (0) or presence of various m-Tyr concentrations (1-20 μM) as indicated. […] The growth rate was determined by the culture absorbance at OD=730. FIG. 5B—raw data of the water samples used in the experiment shown in FIG. 5A, in the presence of the indicated concentrations of m-Tyr. FIG. 5C—a graph depicting the effects of m-Tyr on the cyanobacteria, Synechocystis PCC 6803. The tests were performed with samples of Synechocystis PCC 6803, in the absence (0) or presence of various m-Tyr concentrations (1-1000 μM) as indicated. […] The growth rate was determined by the culture absorbance at OD=730. FIG. 5D—raw data of the water samples used in the experiment shown in FIG. 5C, in the presence of the indicated concentrations of m-Tyr. FIG. 5E—The cell mortality of the cyanobacteria Synechocystis PCC 6803 was evaluated by the numbers of colonies appearing on Agar plates.
# [4] = assay type: physicochemical
# Text: Although m-Tyr is an efficient allelopathic agent, its direct application for agriculture use is limited due to its instability in soil and aqueous environment [Movellan, J. et al. Synthesis and evaluation as biodegradable herbicides of halogenated analogs of L-meta-tyrosine. Environ. Sci. Pollut. Res. 21, 4861-4870 (2014)].
# [5] = system: Arabidopsis thaliana (var. Columbia); assay: Arabidopsis seed-germination and seedlings establishment on MS medium with Phe-analogues; assay type: in vivo; details: for appearance of treated seedlings (cotyledons, leaves): seedlings on MS medium with analogue; for effect on seed-germination: seeds sown on MS medium with 0-80 μM analogue
# Text: FIGS. 2A-D are images depicting the effects of m-Tyr and several other phenylalanine (Phe)-analogs, modified in the meta position of the R-group, on Arabidopsis thaliana (var. Columbia) seed-germination and seedlings establishment. FIG. 2A—m-Tyr; FIG. 2B—Phe-analog “CH3”; FIG. 2C—Phe-analog “F”; FIG. 2D—Phe-analog “CF3”.
# The germination of Arabidopsis thaliana plants is inhibited by the Phe-analogues of some embodiments of the invention—The efficiency of the developed compounds modified at the ‘meta’ position of the phenyl ring (FIG. 1) were analysed on Arabidopsis thaliana (var. Columbia). Following […] for 5 days at 4° C., Arabidopsis seeds were sown on Murashige-Skoog medium (MS) supplemented with increased concentrations (0-80 μM) of different Phe-analogues (in which “Y” was either “CH3”, “F” or “CF3”; see, FIG. 1). […] It should be noted that many more phe-analogues can be easily synthesized chemically based on the present teachings.
# algae (Chlorella) = assay: Effect on algae; assay type: cell-based
# Text: (§2) Thus, m-Tyr and its related Phe-analogues represent the first selective agents against cyanoblooming, a serious threat to both marine ecology and global economy.
# Bacillus subtilis = assay: Antibacterial assay, bacterial growth by optical density (OD=600 nm); assay type: cell-based; details: 0-1000 μM
# Protocol: (§3) FIGS. 6A-B depict the effects of m-Tyr on the growth rates of model gram-positive and gram-negative bacteria. Bacterial growth was determined using optical density data (OD=600 nm) of E. coli and B. subtilis cultures at different time points and at different m-Tyr concentrations (0-1000 μM, the color index for m-Tyr concentration used is in the right side of each panel). FIG. 6A—E. coli; FIG. 6B—Bacillus subtilis; Note that cell growth of E. coli and Bacillus subtilis was not affected by m-Tyr, even when used at high concentrations of 1000 micromolar.
# yeast = assay: Sensitivity of yeast cultures; assay type: cell-based; details: even at concentrations as high as 15 mM; data not shown
# cyanobacteria = assay: Viability experiments / toxicity to cyanobacteria; assay type: cell-based
# Text: as §2
# Microcystis aeruginosa = assay: Lake Kinneret water samples containing toxic cyanobacteria, bleaching and growth (OD=730); assay type: cell-based
# Protocol: as §1, with “aeruginosa.” for “aeruginosa. The tests were performed with samples collected from lake Kinneret, that are contaminated by its native toxic cyanobacteria Microcystis aeruginosa, in the absence (0) or presence of various m-Tyr concentrations (1-20 μM) as indicated.”
# marine bacteria = assay: Effect on marine bacteria; assay type: cell-based
# Text: as §2
# [6] = Movellan et al. 2014; cited from earlier work
# algae (chlamydomonas) = assay: Inhibition of algae; assay type: cell-based; details: even in the millimolar range
# E. coli = assay: Antibacterial assay, bacterial growth by optical density (OD=600 nm); assay type: cell-based, Escherichia coli; details: 0-1000 μM
# Protocol: as §3
# [7] = system: Arabidopsis thaliana (var. Columbia); details: Bertin et al. 2007; cited from earlier work
smiles,measurement,setting,value
O=C(O)CNCP(=O)(O)O [glyphosate],"response of glyphosate resistant Lolium, applied separately",[1]; FIG. 10,resistance
same,elevated glyphosate concentration to which the Lolium variety is resistant,[1]; local Israeli variety of Lolium,60 folds of the recommended concentration
same,"amount of glyphosate achieving inhibition of weed growth, used alone",A. thaliana [2],100 µM
same,concentration of glyphosate required for the same growth inhibition in combination,"A. thaliana [3]; in the presence of the effective amount of the compound (ZYX1, FIG. 9)",10 µM
"N[C@@H](Cc1cccc(F)c1)C(=O)O [F, 3′ fluoro phenylalanine]",low concentration at which inhibition of growth rate is evident,Synechocystis PCC 6803; culture absorbance at OD=730,6.25 µM
same,bleaching of the cyanobacteria culture,"Synechocystis PCC 6803; increasing concentrations, 0 to 50 μM, FIG. 3B after 150 hours",bleaching of the culture
same,effect on growth / killing of the cyanobacteria,Synechocystis PCC 6803,effective; also recorded: very strong effect
same,stability compared with the meta tyrosine molecule,[4],more stable
same,"appearance of treated seedlings (cotyledons, leaves)",[5],white cotyledons and yellowish leaves
same,effect on seed-germination,[5],strongly affected
"N[C@@H](Cc1cccc(O)c1)C(=O)O [m-Tyr, 3-hydroxyphenylalanine]",effect on algae,algae (Chlorella),no obvious effects
same,effect on growth / killing of the cyanobacteria,Synechocystis PCC 6803; listed as meta tyrosine,effective
same,effect on cell growth,Bacillus subtilis,did not affect cell growth; also recorded: no (or very little) effect; also recorded: not affected
same,sensitivity of yeast cultures,yeast,not sensitive
same,effect on / toxicity to cyanobacteria,cyanobacteria; very low μM range,highly susceptible; also recorded: strongly affecting; also recorded: toxic
same,concentration as low as which addition to the growth media induces cell death,cyanobacteria; viability experiments,0.5 µM
same,effect on growth / killing of the cyanobacteria,Microcystis aeruginosa; OD=730,very strong effect
same,effect on growth / killing of the cyanobacteria,"Microcystis aeruginosa; OD=730, listed as meta tyrosine",effective
same,bleaching of the cyanobacteria culture,Microcystis aeruginosa; increasing concentrations (printed 0 mM to 10 mM),bleaching of the culture
same,effect on marine bacteria,marine bacteria,no obvious effects
same,stability in soil and aqueous environment,[6],instability
same,inhibition of algae,algae (chlamydomonas),no inhibition effects
same,effect on cell growth,E. coli,did not affect cell growth; also recorded: no (or very little) effect; also recorded: not affected
same,"appearance of treated seedlings (cotyledons, leaves)",[5],white cotyledons and yellowish leaves
same,"chloroplast morphology, microscopic analysis","[5]; seedlings treated with 10 μM, data not shown",altered chloroplast morphologies and less grana lamella
same,effect on seed-germination,[5],strongly affected
same,reduction in the concentration of glyphosate,"A. thaliana [3]; combination of ZYX1 with glyphosate, FIG. 9",about 90%
same,"phytotoxic activity (inhibition of germination of angiosperms, root growth)",[7],promising phytotoxic activity
